The record followed here is a melting point compilation (Tetko et al.; mined from patent text by program, amines drawn as free bases though some values may be those of a salt).

What is called melting point is the temperature, or range, at which the solid turns liquid.

Molecules are shown by their SMILES. Bounds are passed on as bounds.

On to `Oc1ccc(-c2cc3c(Br)c(O)ccc3o2)cc1`, for which the melting point lay in the range of 196 to 198 °C. As for `O=S(=O)(c1ccc(F)cc1)N1CCCC1c1ccco1` (racemic), the figure is 69 °C; as for `Nc1nccc2oc(I)cc12`, 170 to 173 °C. `C[C@H]1CC[C@@H](OC(=O)c2nc(Cl)n3c2[C@@H]2CCCN2C(=O)c2ccccc2-3)CC1` gave a melting point of 176 to 177 °C. As for `CCCC[C@H](NC(=O)[C@@H](NC(=O)OCc1ccccc1)c1ccccc1)C(=O)CSCc1ccco1`, the figure is 144 to 146 °C; as for `CCn1cc(C=CC(N)=O)c([N+](=O)[O-])n1`, 210 to 212 °C; as for `COc1ccc2c(c1)CC(N(CC(=O)O)C(=O)C(C)CSC(C)=O)CC2` (centres undefined), 147 to 150 °C. For the compound `CC(=O)c1ccc2c(c1)CC(=O)N2CC(F)(F)F`, the melting point lay in the range of 170 to 171 °C. Consider `Cc1[nH]c(C(=O)NC2CCN(c3cc(C(=O)O)nc4ccccc34)CC2)c(Cl)c1Cl`, for which the melting point lay in the range of 254 to 256 °C. Compound `Brc1ccc(Nc2nnc(Cc3ccncc3)c3ccccc23)cc1` came in with a melting point of 201 to 202 °C. As for `CCN1C(=O)CNCc2cc(OC)c([N+](=O)[O-])cc21`, the figure is 132 to 134 °C; as for `Clc1ccc(CSC(CCc2ccccc2)Cn2ccnc2)cc1Cl` (centres undefined), 144 to 146 °C. As for `C[C@H]1CCCC(C)(C)[C@@H]1C(=O)c1cc(F)c(F)c(F)c1`, the figure is 56.7 °C; as for `O=C(CNC(=O)C(Cc1ccccc1)C(=O)NOCc1ccccc1)OCc1ccccc1` (centres undefined), 70 °C; as for `CC(=O)c1cc2c(s1)SCCN(CCCCN1CCN(c3ncccn3)CC1)C2=O`, 118 to 120 °C.

On to `CCOC(=O)c1sc(Oc2ccc(OCc3ccc4ccccc4n3)cc2)c2c1CCc1cnn(C)c1-2`, for which the melting point lay in the range of 269 to 270 °C. Under `Cn1c(SCCCN2CCc3ccc(NS(C)(=O)=O)cc3C2)nnc1-c1ccccc1` stands 90 °C; under `N#Cc1cnn(-c2c(Cl)cc(SC(F)(F)F)cc2Cl)c1N`, 185 to 187 °C. On to `CCc1n[nH]c(=O)n1CCOc1ccccc1`, for which the melting point was in the range of 136 to 139 °C. As for `CC(=O)C1CCC2C3CCC4CC(=O)C(C)CC4(C)C3C(=O)CC12C` (centres undefined), the figure is 176 °C. Consider `CC(=O)Cc1ccc(-n2ccnc2)cc1`, for which the melting point lay in the range of 71.5 to 72.5 °C. Under `N#CC1=C(Nc2ccc(Cl)cc2[N+](=O)[O-])CSC1` stands 154 to 155 °C; under `O=C(Nc1cccc(NC(=O)c2ccc(O)cc2)c1)c1ccc(O)cc1`, 250 °C. As for `COC(=O)CCCON1CCNC1=Nc1c(Cl)cccc1Cl`, the figure is 95 to 96 °C. As for `CCCC(=O)c1ccc(C(CC(=O)Nc2cc(C(N)=O)ccc2C(C)(C)C)CC(C)C)c(OC)c1` (centres undefined), the figure is 189 to 190 °C. In the case of `Cc1nc(N)nc(N)c1N1CCN(c2ccc(C(=O)NCC(=O)O)cc2)CC1`, the melting point is more than 310 °C. Take `O=C1c2ccccc2-c2c1c1ccccc1c(=O)n2CCNS(=O)(=O)c1ccc(Br)cc1`: the melting point was 260 to 263 °C.

Turning to `COc1cc(N2CCC(N3CC[C@@H](O)C3)CC2)ccc1[N+](=O)[O-]`, the melting point is 137 to 139 °C.

As to `COc1ccc(C2=NN(Cc3ccc(CC(=O)O)cc3)C(=O)[C@H]3CCCC[C@@H]23)cc1OC` (relative stereo), the melting point is 164 to 166 °C. As for `Cc1ccc(C#CC2CCC3C4CCC5CC(O)CCC5(C)C4CCC23C)cc1` (centres undefined), the figure is 178 to 180 °C; as for `CC1(C)CCC(C)(C)c2cc(C#Cc3ccc(C#N)cc3)ccc21`, 157 °C. Consider `CC(O)c1ccc(Cc2ccccc2CO)cc1` (centres undefined), for which the melting point lay in the range of 96 to 97 °C. The compound `Cc1oc(-c2ccccc2)nc1COc1ccc(CN(O)C(N)=O)cc1F` showed a melting point of 143 to 144 °C.

In the case of `COc1ccc(-n2nc(-c3ccccc3O)nc2-c2ccccc2O)cc1`, the melting point is 179 to 181 °C. In turn, `Cc1nnc2n1-c1sc(CCc3ccc(-c4ccccc4)cc3)cc1C(c1ccccc1Cl)=NC2` came in with a melting point of 163 to 165 °C. Consider `O=C(NO)[C@H](CNS(=O)(=O)c1ccc(OCc2ccccc2)cc1)N1CCCCC1`, for which the melting point came out at 126 °C. Take `CS(=O)(=O)Nc1cc(NC(=O)CC(=O)C(F)(F)F)c(F)cc1C#N`: the melting point lay in the range of 186 to 191 °C. Under `CCCNc1nc(=O)n(C2CC(N=[N+]=[N-])C(COC(C)=O)O2)cc1C` (centres undefined) stands 138 to 140 °C; under `O=C(NCc1ccc(Cl)cc1)c1cn(N2CCCCC2)c2ccc(CN3CCOCC3)cc2c1=O`, 161 to 164 °C; under `Nc1nc(N)nc(-c2ccc(OCc3ccc(Cl)cc3)cc2)n1`, 246 to 248 °C. As for `COc1cccc2c1C(=O)c1c(O)c3c(c(O)c1C2=O)CC(O)(C(C)=O)CC3O` (centres undefined), the figure is 217 to 221 °C. Under `C=CCN(CC)c1ccc2[nH]c3cnc(C(=O)OCC)cc3c2c1` stands 190 to 192 °C; under `COC(=O)c1cc(-c2ccccc2)c(=O)n2c1-c1sccc1CN2C(C)=O`, 132 to 134 °C; under `O=C(Nc1nc2n(n1)Cc1ccccc1-2)c1ccccc1`, 220 to 221 °C. Consider `CCCC(CC1CCc2c(cccc2OCC(=O)OC)C1)=NO` (centres undefined), for which the melting point fell in the range of 95.9 to 97 °C.

The compound `O=C(O)C1=CSC2C(=CC3=CN4CCCCCC4N3)C(=O)N12` (centres undefined) registered a melting point of more than 250 °C. As for `CCC12CCC3C4CCC(=O)C=C4CCC3C1CCC2OC(O)C(Cl)(Cl)Cl` (centres undefined), the figure is 175 to 176 °C; as for `COc1ccc(-c2nc3cnccc3[nH]2)c(OC(C)C)c1`, 220 °C. Under `ON=C(c1ccccc1)c1cc(F)cc(F)c1` stands 91 to 93 °C; under `CC(C)(C)C(=O)c1cnn2cccnc12`, 130 to 131 °C. As for `CCCC(=O)C1CCC2C3CCC4CC(O)CCC4(C)C3C(=O)CC12C` (centres undefined), the figure is 112 to 113 °C; as for `CCCCCCCCOc1ccc(C(=O)NN)cc1`, 90 °C. In turn, `Cc1ccc(C(=O)NCCO)c(Nc2ccc3cn[nH]c3c2)n1` came in with a melting point of 217 to 220 °C. Compound `C[C@@H]1CCC[C@H](C)N1CCNC(=O)CN1C(=O)CCC1(C)C` had a melting point of 94 to 94.5 °C. `O=c1[nH]c2c(n3ccnc13)C(NS(=O)(=O)c1ccccc1)c1ccccc1-2` (centres undefined) came in with a melting point of 216 °C. As for `COC(=O)c1cn(Cc2ccc(OCc3ccccc3)cc2)cc1-c1ccccc1`, the figure is 97 to 98 °C; as for `Cc1nnc(-c2cccs2)c(=O)n1N`, 210 °C; as for `CC1CC(c2ccccc2)(N(C)C)CCC1=O` (centres undefined), 50 °C. As for `CC(C)c1c(C=O)c(-c2ccccc2)c2c3ccccc3ccn12`, the figure is 134 to 136 °C; as for `Cc1c(C)c2c(c(C)c1N)CC(C)(CN1CCC(OCC=Cc3ccccc3)CC1)O2` (centres undefined), 77 to 79 °C. As for `COc1cc2c(c(OC)c1/C=C/c1ccc(C(N)=O)cc1)C(C)(C)CCC2(C)C`, the figure is 190 to 194 °C; as for `COc1ccc(-c2c(C)c3cc(O)ccc3n2Cc2ccc(OCCN3CCCCC3)cc2)c(OC)c1`, 85 to 92 °C. On to `CCCCCCCCC1COC(c2ccc(O)cc2)OC1` (centres undefined), for which the melting point is 96 to 97 °C. `OCc1cc(OCc2ccc(C(F)(F)F)cc2)ccn1` registered a melting point of 96 to 98 °C. In turn, `NCCNc1n[nH]c2ncnc(Nc3cccc(Cl)c3)c12` returned a melting point of 200 °C. Under `COCCCC#Cc1ccccc1S(N)(=O)=O` stands 59 to 61 °C; under `CCOC(=O)c1nc(-c2cc(Cl)c(OC)c(OC)c2)cs1`, 92 to 94 °C; under `Nc1ncc(-c2cccs2)nc1C(=O)Nc1cccnc1`, 178 to 189 °C. Regarding `CN(C)c1cccc(-n2cc(C(=O)NC(=N)N)c3cccnc32)c1`, the melting point fell in the range of 269 to 271 °C. Under `CCCc1nn2ncc(C(=O)OCOC(=O)C(C)(C)C)c2n1Cc1ccc(-c2ccccc2-c2nnn[nH]2)cc1` stands 157 to 158 °C; under `NS(=O)(=O)c1ccc(C(=O)c2ccc(O)cc2)s1`, 183 to 190 °C; under `CCc1c(-c2ccccc2)oc2c(C(=O)NCCCN3CCN(c4ccccc4OC)CC3)cccc2c1=O`, 133 to 136 °C. Under `COc1cc(Oc2cccc(C(F)(F)F)c2)nc(C(=O)NN=C(C)c2ccccc2)c1` stands 181 to 182 °C; under `CCCCCCCCC=CCCCCCCCCCCCC(=O)Nc1ccc(Cl)cc1C(=O)O`, 159 to 162 °C. As for `COc1ccc(C(=O)Nc2nc(-c3ccccc3)c(-c3ccc(=O)n(C(C)C)n3)s2)cc1`, the figure is 219 to 221 °C; as for `Cc1ccc(Cl)c(C(=O)c2ccc(Cl)cc2)c1Cl`, 132 to 136 °C. `O=C(O)c1ccc2c(c1)Sc1ccc(F)cc1C(O)C2` (centres undefined): the melting point is 204 to 210 °C. Under `O=C(COc1ccccc1)NC1C(=O)N2C(C(=O)OCc3ccccc3)N=CSC12` (centres undefined) stands 142 to 143 °C; under `CCOC(=O)C1Cc2cc(Cl)ccc2NC1=O` (centres undefined), 173 to 175 °C. As for `CCOC(=O)Cn1c2c([nH]c(=O)c1=O)CCC1=C2C=C(n2ccc(N3CCN(c4ccc([N+](=O)[O-])cc4)CC3)c2)CC1`, the figure is 229 °C; as for `Cc1nc2c(N)nc3ccccc3c2n1CCOCCNC(=O)c1ccccc1`, 210 to 212 °C; as for `CCOC(=O)C(CC)Sc1nc2c([nH]1)c(=O)n(C)c(=O)n2C` (centres undefined), 175 °C. Take `Cn1cc(C(=O)O)c(=O)c2c3cc(N4CCCC(C)(C)C4)c(F)cc3ncc21`: the melting point was 292 to 295 °C. The compound `COc1ccc(-c2sc(-c3ccccc3)cc2OC(C)=O)cc1` yielded a melting point of 81 to 82 °C. For the compound `CC(C)c1nc(CO)n(Cc2cccnc2)c1Sc1cc(Cl)cc(Cl)c1`, the melting point was in the range of 136 to 139 °C. Under `CCOCc1c2ccccc2cc2ccccc12` stands 74 to 75 °C; under `FC(F)c1nc2ccccc2n1-c1nc(Nc2cnccn2)nc(N2CCOCC2)n1`, 271 to 274 °C. Under `CCC(=O)N(Cc1ccc(OC(F)(F)F)cc1)c1cc(Cl)cc(-c2nnn[nH]2)c1` stands 144 °C; under `O=S(=O)(c1cc(F)ccc1F)N1CCNc2ncc(I)cc21`, 187 to 188 °C.
